This passage reports T/C results from PubChem BioAssay AID330 (DTP/NCI, 2004).

Values joined by “and” are separate entries in the source; they are usually repeats but may differ in a detail not shown here. Equal entries are not always repeated. Inconclusive results and toxic doses are left out.

The assay relates to P388 leukemia ip, CD2F1 mice, survival T/C. The assay is described as follows: NCI In Vivo Anticancer Drug Screen. Data for tumor model P388 Leukemia (intraperitoneal) in CD2F1 (CDF1) mice. Particulars: endpoint: median survival time, higher = longer survival. The method in brief: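 Mice carrying the transplanted tumor received test compound or vehicle. Survival was recorded in each group, and the value is the treated-group measurement divided by that of the vehicle-treated control group.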

[1] abbreviates: dose: 50.0 mg/kg/injection, schedule: Q01DX009 (ip), vehicle: saline.
The mark [2] stands for this setting: dose: 100.0 mg/kg/injection, schedule: Q01DX009 (ip), vehicle: saline.
Setting [3] is: dose: 200.0 mg/kg/injection, schedule: Q01DX009 (ip), vehicle: saline.
The mark [4] stands for this setting: dose: 100.0 mg/kg/injection, schedule: Q01DX009 (ip), vehicle: saline with Tween-80.
Where [5] appears, read: dose: 50.0 mg/kg/injection, schedule: Q01DX009 (ip), vehicle: Klucel (hydroxypropylcellulose) (HPC).
Where [6] appears, read: dose: 100.0 mg/kg/injection, schedule: Q01DX009 (ip), vehicle: Klucel (hydroxypropylcellulose) (HPC).
[7] abbreviates: dose: 200.0 mg/kg/injection, schedule: Q01DX009 (ip), vehicle: Klucel (hydroxypropylcellulose) (HPC).
The mark [8] stands for this setting: dose: 60.0 mg/kg/injection, schedule: Q01DX005 (ip), vehicle: Klucel (hydroxypropylcellulose) (HPC).
Setting [9] is: dose: 120.0 mg/kg/injection, schedule: Q01DX005 (ip), vehicle: Klucel (hydroxypropylcellulose) (HPC).
[10] abbreviates: dose: 240.0 mg/kg/injection, schedule: Q01DX005 (ip), vehicle: Klucel (hydroxypropylcellulose) (HPC).
Where [11] appears, read: dose: 50.0 mg/kg/injection, schedule: Q01DX005 (ip), vehicle: saline with Tween-80.
The mark [12] stands for this setting: dose: 100.0 mg/kg/injection, schedule: Q01DX005 (ip), vehicle: saline with Tween-80.
Where [13] appears, read: dose: 50.0 mg/kg/injection, schedule: Q01DX005 (ip), vehicle: Klucel (hydroxypropylcellulose) (HPC).
Setting [14] is: dose: 100.0 mg/kg/injection, schedule: Q01DX005 (ip), vehicle: Klucel (hydroxypropylcellulose) (HPC).

For the compound `[NH-]C(C[S-])C(=O)O.[NH-]C(C[S-])C(=O)O.[O]=[Mo]1[O][Mo](=[O])[O]1` (centres undefined), the T/C was 99 % of control under setting [1], 90 % of control under setting [2] and 104 % of control under setting [3].

With `CCOC(=O)/C(C#N)=C/Nc1ccncc1`, the T/C is, setting by setting: (dose: 50.0 mg/kg/injection, schedule: Q01DX009 (ip), vehicle: saline with Tween-80) 95 % of control; under setting [4], 87 % of control.

For the compound `CCCCCCCCCCCCCCCCS(=O)(=O)N/N=C(\c1ccc(C(C)C)cc1)N1CCOCC1`, the T/C is 90 % of control under setting [5], 89 % of control under setting [6] and 90 % of control under setting [7].

As to `CCSSC12CCCN1C(=O)C(C)N(C)C2=O` (centres undefined), the T/C under setting [1] was 105 % of control, the T/C under setting [2] is 104 % of control and the T/C under setting [3] is 111 % of control.

Regarding `O=C(CCCCCO)c1nc2ccccc2s1`, the T/C is, setting by setting: under setting [8], 100 % of control; under setting [9], 102 % of control; under setting [10], 94 % of control.

Turning to `Cc1ccc(C2SCC(=O)N2c2nncs2)s1` (centres undefined), the T/C is, setting by setting: under setting [11], 100 % of control; under setting [12], 92 % of control; (dose: 200.0 mg/kg/injection, schedule: Q01DX005 (ip), vehicle: saline with Tween-80) 94 % of control.

Turning to `[Cl][Cr]([Cl])[Cl].[NH-]CC[N-]CC[NH-]`, the T/C runs as follows: under setting [1], 97 % of control; under setting [2], 109 % of control; under setting [3], 115 % of control.

For the compound `O=[N+]([O-])c1ccc(/C=N/N2CCNC2=S)o1`, the T/C (dose: 25.0 mg/kg/injection, schedule: Q01DX009 (ip), vehicle: Klucel (hydroxypropylcellulose) (HPC)) was 100 % of control; the T/C under setting [5] is 101 % of control; the T/C under setting [6] was 100 % of control; the T/C under setting [7] is 100 % of control.

With `CCOC(=O)c1cc(=O)c2c(OC)ccc(Cl)c2[nH]1`, the T/C runs as follows: under setting [8], 100 % of control; under setting [9], 99 % of control; under setting [10], 96 % of control.

As to `Cc1cc2ccccc2c[n+]1[O-]`, the T/C runs as follows: under setting [13], 97 % of control; under setting [14], 112 % of control.

In the case of `O=C(O)C(Nc1ccccn1)(c1ccccc1)c1ccccc1`, the T/C was 102 % of control under setting [8], 102 % of control under setting [9] and 98 % of control under setting [10].

For the compound `O=C1OC(C2OC(=O)C(=O)C2C(=O)c2ccc(Cl)c(Cl)c2)C(C(=O)c2ccc(Cl)c(Cl)c2)C1=O` (centres undefined), the T/C (dose: 60.0 mg/kg/injection, schedule: Q01DX005 (ip), vehicle: saline) is 100 % of control; the T/C (dose: 120.0 mg/kg/injection, schedule: Q01DX005 (ip), vehicle: saline) was 96 % of control; the T/C (dose: 240.0 mg/kg/injection, schedule: Q01DX005 (ip), vehicle: saline) is 90 % of control.

As to `CN1CCOc2cc3nc4ccccc4nc3cc21`, the T/C (dose: 25.0 mg/kg/injection, schedule: Q01DX009 (ip), vehicle: saline) was 107 % of control; the T/C under setting [1] was 98 % of control; the T/C under setting [2] was 105 % of control.

Consider `CC(C)=CC[P+](CCC[P+](CC=C(C)C)(c1ccccc1)c1ccccc1)(c1ccccc1)c1ccccc1`, for which the T/C is, setting by setting: (dose: 3.12 mg/kg/injection, schedule: Q01DX005 (ip), vehicle: saline with Tween-80) 106 % of control; (dose: 6.25 mg/kg/injection, schedule: Q01DX005 (ip), vehicle: saline with Tween-80) 104 % of control; (dose: 12.5 mg/kg/injection, schedule: Q01DX005 (ip), vehicle: saline with Tween-80) 98 % of control.

`O=C(O)C1CCCCC1c1c2ccc(=O)cc-2oc2cc(O)ccc12` (centres undefined): the T/C is 90 % of control under setting [4]; 95 % of control (dose: 200.0 mg/kg/injection, schedule: Q01DX009 (ip), vehicle: saline with Tween-80); 100 % of control (dose: 400.0 mg/kg/injection, schedule: Q01DX009 (ip), vehicle: saline with Tween-80).

Consider `Cc1cccc(Nc2nnc3nc(-c4ccccc4)c(-c4ccccc4)nn23)c1`, for which the T/C is 94 % of control (dose: 25.0 mg/kg/injection, schedule: Q01DX001 (ip), vehicle: saline with Tween-80); 100 % of control (dose: 50.0 mg/kg/injection, schedule: Q01DX001 (ip), vehicle: saline with Tween-80); 91 % of control and 95 % of control (dose: 100.0 mg/kg/injection, schedule: Q01DX001 (ip), vehicle: saline with Tween-80).

On to `CC(=O)O[C@]12C=C[C@H](O1)[C@@H]1C(=O)NC(=O)[C@@H]12`, for which the T/C (dose: 6.25 mg/kg/injection, schedule: Q04DX002 (ip), vehicle: saline) is 98 % of control; the T/C (dose: 12.5 mg/kg/injection, schedule: Q04DX002 (ip), vehicle: saline) was 106 % of control; the T/C (dose: 25.0 mg/kg/injection, schedule: Q04DX002 (ip), vehicle: saline) was 88 % of control.

With `COc1ccc(C(C#N)C(=O)CCC(=O)C(C#N)c2ccc(OC)c(OC)c2)cc1OC` (centres undefined), the T/C (dose: 100.0 mg/kg/injection, schedule: Q04DX002 (ip), vehicle: saline with Tween-80) was 106 % of control and the T/C (dose: 200.0 mg/kg/injection, schedule: Q04DX002 (ip), vehicle: saline with Tween-80) was 98 % of control.

As to `CCCCOCCOCCOC1C2CC3C1C3(OCCOCCOCCCC)C2` (centres undefined), the T/C is 104 % of control under setting [1], 99 % of control under setting [2] and 104 % of control under setting [3].

Turning to `NS(=O)(=O)c1ccc(NC(=S)Nc2ccccc2C(F)(F)F)cc1`, the T/C is 92 % of control (dose: 50.0 mg/kg/injection, schedule: Q01DX009 (ip), vehicle: gum acacia); 109 % of control (dose: 100.0 mg/kg/injection, schedule: Q01DX009 (ip), vehicle: gum acacia); 100 % of control (dose: 200.0 mg/kg/injection, schedule: Q01DX009 (ip), vehicle: gum acacia).

With `Cc1cc(N/N=C/c2ccc([N+](=O)[O-])cc2)c2cc3c(cc2n1)OCO3`, the T/C was 100 % of control (dose: 12.5 mg/kg/injection, schedule: Q01DX005 (ip), vehicle: Klucel (hydroxypropylcellulose) (HPC)); 102 % of control (dose: 25.0 mg/kg/injection, schedule: Q01DX005 (ip), vehicle: Klucel (hydroxypropylcellulose) (HPC)); 101 % of control and 104 % of control under setting [13].

As to `CC(=N/N=C(N)N)/C(C)=N/N=C(N)N`, the T/C reads like this: under setting [11], 104 % of control; under setting [12], 110 % of control.

For the compound `CO[C@H](/C(C)=C/C=C/C(C)=C/c1coc(C)n1)[C@H](C)[C@H]1C[C@@H](O)[C@@]2(C)O[C@H]2/C=C/[C@@H](C)[C@@H]2C[C@@H](CC(=O)O2)C[C@H]2O[C@@H]2C(=O)O1`, the T/C (dose: 0.1 mg/kg/injection, schedule: Q01DX005 (ip), vehicle: Klucel (hydroxypropylcellulose) (HPC)) is 150 % of control; the T/C (dose: 0.12 mg/kg/injection, schedule: Q01DX005 (ip), vehicle: Klucel (hydroxypropylcellulose) (HPC)) is 150 % of control; the T/C (dose: 0.14 mg/kg/injection, schedule: Q01DX005 (ip), vehicle: Klucel (hydroxypropylcellulose) (HPC)) was 152 % of control and 160 % of control; the T/C (dose: 0.18 mg/kg/injection, schedule: Q01DX005 (ip), vehicle: Klucel (hydroxypropylcellulose) (HPC)) was 160 % of control; the T/C (dose: 0.24 mg/kg/injection, schedule: Q01DX005 (ip), vehicle: Klucel (hydroxypropylcellulose) (HPC)) was 166 % of control; the T/C (dose: 0.45 mg/kg/injection, schedule: Q01DX005 (ip), vehicle: Klucel (hydroxypropylcellulose) (HPC)) is 171 % of control and 184 % of control and 195 % of control. Moreover, the T/C is 181 % of control and 191 % of control (dose: 0.67 mg/kg/injection, schedule: Q01DX005 (ip), vehicle: Klucel (hydroxypropylcellulose) (HPC)); 104 % of control (dose: 10.0 micrograms/kg/injection, schedule: Q01DX005 (ip), vehicle: Klucel (hydroxypropylcellulose) (HPC)); 109 % of control and 123 % of control (dose: 20.0 micrograms/kg/injection, schedule: Q01DX005 (ip), vehicle: Klucel (hydroxypropylcellulose) (HPC)); 163 % of control (dose: 80.0 micrograms/kg/injection, schedule: Q01DX005 (ip), vehicle: Klucel (hydroxypropylcellulose) (HPC)).

Turning to `N#CCCNCCC[Si]12OCCN(CCO1)CCO2`, the T/C reads like this: under setting [13], 97 % of control; under setting [14], 100 % of control; (dose: 200.0 mg/kg/injection, schedule: Q01DX005 (ip), vehicle: Klucel (hydroxypropylcellulose) (HPC)) 101 % of control and 103 % of control.

Take `CCC(=O)NC(Cc1ccc(F)cc1)C(=O)O` (centres undefined): the T/C reads like this: under setting [1], 90 % of control; under setting [2], 88 % of control; under setting [3], 90 % of control.
